Assay results as given in PMC6522912, “Evaluation of the published kinase inhibitor set to identify multiple inhibitors of bacterial ATP-dependent mur ligases” (Journal of Enzyme Inhibition and Medicinal Chemistry, 2019).
Values after ≈ are worked out from the molar mass of the structure shown. Read-outs that look alike come from different tables or passages of the source.

Legend:
[1] = molecular target: E. coli MurD (Escherichia coli, UniProt P14900); assay: biochemical; conditions: for remaining activity at 100 µM: 0.25 h, Table S1, PKIS screening, read-out: RA [%] at 100 µM MurD; for IC50 / MurD RA [%]: Table 1; for IC50: read-out: MurD IC50; for LE (MurD): ligand efficiency, LE = (1.37 × pIC50)/HAC; for MurD RA [%]: residual activity at 100 µM compound
Procedure, shortened: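 Reaction 15 min at 37 °C, then phosphate detected with Biomol green at 650 nm. Values are residual activity versus 5% DMSO carrier controls.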

[2] = molecular target: E. coli MurE (Escherichia coli, UniProt P22188); assay: Malachite green inhibition assay, MurE; type: biochemical; conditions: for IC50 / MurE RA [%]: Table 1; for IC50: read-out: MurE IC50; for MurE RA [%]: residual activity at 100 µM compound
Method: Inhibition of the Mur ligases was determined using the malachite green assay, with slight modifications.
MurE: 50 mM Hepes, pH 8.0, 15 mM MgCl2, 0.005% Triton X-114, 60 µM meso-diaminopimelic acid, 100 µM uridine-5′-diphosphate-N-acetylmuramoyl-L-alanine-D-glutamate, 1000 µM ATP, and purified E. coli MurE[27].
In all cases, the final concentration of DMSO was 5% (v/v). After incubation for 15 min at 37 °C, the enzyme reaction was terminated by addition of 100 µM Biomol green reagent, and the absorbance was measured at 650 nm after 5 min. All of the experiments were run in duplicate. Residual activities were calculated with respect to control assays without the tested compounds, but with the 5% DMSO carrier.
The published kinase inhibitor set compounds were evaluated for inhibition of MurC, D and F ligases from E. coli using the Malachite green assay, which detects orthophosphate generated during enzymatic reactions. To avoid non-specific inhibition due to aggregate formation, all of the compounds were tested in the presence of detergent (0.005% Triton-X114). The data are presented as the residual activities of these Mur ligases in the presence of 100 µM of each test compound (Supporting Information Table S1). […]. The IC50 values against MurC, D, E and F were determined for the selected hit compounds – one representative compound from each structural class was chosen: compound 1[33], aza-stilbene derivative; compound 2[34], alkynyl pyrimidine; compound 3[35], pyrazolo [1,5]-b]pyridazine; compound 4[36], phenoxypyrimidine; compound 5[37], 4,6-bis-anilino-1H-pyrrolo[2,3-pyrimidine (Table 1). […]. […] Among the hits, compounds for further mechanistic studies were chosen on the basis of their ligand efficiency. Ligand efficiency quantifies the molecular properties, particularly size and lipophilicity and is used as a selection criterion for structurally different compounds as more ‘efficient’ ligands have the potential to control for the inflation of these properties[38] Thus ligand efficiencies were calculated for the four hits (Supporting Information Table S2)[39]^,[40], and compound 1 was selected as the most promising for additional studies. Additionally, regarding the data of profiled compounds in large panels of human kinase assays[41] […] To provide sufficient amounts of compound 1 for kinetic and NMR studies, it was resynthesized according to the synthetic procedures (Figure 2) described in the literature.

[3] = molecular target: E. coli MurF (Escherichia coli, UniProt P11880); assay: biochemical; conditions: for remaining activity at 100 µM: 0.25 h, Table S1, PKIS screening, read-out: RA [%] at 100 µM MurF; for IC50 / MurF RA [%]: Table 1; for LE (MurF): ligand efficiency, LE = (1.37 × pIC50)/HAC; for MurF RA [%]: residual activity at 100 µM compound
[4] = molecular target: E. coli MurC (Escherichia coli, UniProt P17952); assay: Malachite green inhibition assay, MurC; type: biochemical; conditions: for remaining activity at 100 µM: 0.25 h; for IC50 / MurC RA [%]: Table 1; for IC50: read-out: MurC IC50; for MurC RA [%]: residual activity at 100 µM compound
[5] = test system: human kinases; conditions: over 200 kinase activity assays and 68 DSF assays; cited from earlier work
[6] = test system: E. coli (ATCC 25922); assay: Antimicrobial testing, broth microdilution; type: cell-based; conditions: Escherichia coli, ATCC25922; positive control; 20 h, 37 °C
Method: (§1) Antimicrobial testing was performed by the broth microdilution method in 96-well plates following the Clinical and Laboratory Standards Institute guidelines[29] and European Committee on Antimicrobial Susceptibility Testing recommendations. Bacterial suspensions equivalent to 0.5 McFarland turbidity standard were diluted with cation-adjusted Mueller–Hinton broth with TES buffering (ThermoFisher Scientific), for a final inoculum of 10^5 CFU/mL. The compounds dissolved in DMSO and the inoculum were mixed together and incubated for 20 h at 37 °C. […] The MICs were determined against Staphylococcus aureus (ATCC 29213) and E. coli (ATCC 25922) bacterial strains. Tetracycline was used as the positive control on every assay plate, with MICs of 0.5 and 1 µg/mL for S. aureus and E. coli, respectively.

[7] = test system: Staphylococcus aureus (ATCC 29213); assay: Antimicrobial testing, broth microdilution; type: cell-based; conditions: ATCC29213, positive control, 20 h, 37 °C
Method: as §1

[8] = Table S1, PKIS screening, read-out: RA [%] at 100 µM MurC
[9] = read-out: RA [%] at 100 µM MurC, Table S1, PKIS screening

Chain of E. coli MurD (P14900 whole entry): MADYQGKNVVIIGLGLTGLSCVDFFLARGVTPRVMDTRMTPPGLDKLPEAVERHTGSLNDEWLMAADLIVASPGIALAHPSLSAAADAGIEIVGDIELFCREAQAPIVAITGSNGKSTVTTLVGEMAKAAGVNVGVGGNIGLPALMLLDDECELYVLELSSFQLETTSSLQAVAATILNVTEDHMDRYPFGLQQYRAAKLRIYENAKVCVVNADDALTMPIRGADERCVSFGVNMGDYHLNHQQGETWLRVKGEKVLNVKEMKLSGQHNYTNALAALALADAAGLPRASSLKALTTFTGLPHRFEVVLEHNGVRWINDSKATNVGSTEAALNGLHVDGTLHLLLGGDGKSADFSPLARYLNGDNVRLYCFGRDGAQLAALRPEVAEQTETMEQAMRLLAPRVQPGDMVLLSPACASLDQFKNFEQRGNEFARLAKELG
Chain of E. coli MurC (P17952 whole entry): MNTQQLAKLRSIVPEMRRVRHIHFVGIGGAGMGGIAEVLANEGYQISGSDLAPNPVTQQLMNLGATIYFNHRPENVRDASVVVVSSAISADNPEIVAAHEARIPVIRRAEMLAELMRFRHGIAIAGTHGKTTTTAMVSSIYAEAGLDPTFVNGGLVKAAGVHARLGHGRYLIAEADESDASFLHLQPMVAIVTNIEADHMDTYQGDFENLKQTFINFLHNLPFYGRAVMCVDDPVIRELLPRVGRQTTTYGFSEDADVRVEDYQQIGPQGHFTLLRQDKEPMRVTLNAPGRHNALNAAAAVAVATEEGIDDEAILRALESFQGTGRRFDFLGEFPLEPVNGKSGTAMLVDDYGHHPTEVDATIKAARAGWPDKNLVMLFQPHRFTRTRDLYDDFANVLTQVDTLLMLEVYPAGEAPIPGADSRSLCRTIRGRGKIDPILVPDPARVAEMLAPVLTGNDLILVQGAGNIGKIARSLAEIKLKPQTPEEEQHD
Chain of E. coli MurE (P22188 whole entry): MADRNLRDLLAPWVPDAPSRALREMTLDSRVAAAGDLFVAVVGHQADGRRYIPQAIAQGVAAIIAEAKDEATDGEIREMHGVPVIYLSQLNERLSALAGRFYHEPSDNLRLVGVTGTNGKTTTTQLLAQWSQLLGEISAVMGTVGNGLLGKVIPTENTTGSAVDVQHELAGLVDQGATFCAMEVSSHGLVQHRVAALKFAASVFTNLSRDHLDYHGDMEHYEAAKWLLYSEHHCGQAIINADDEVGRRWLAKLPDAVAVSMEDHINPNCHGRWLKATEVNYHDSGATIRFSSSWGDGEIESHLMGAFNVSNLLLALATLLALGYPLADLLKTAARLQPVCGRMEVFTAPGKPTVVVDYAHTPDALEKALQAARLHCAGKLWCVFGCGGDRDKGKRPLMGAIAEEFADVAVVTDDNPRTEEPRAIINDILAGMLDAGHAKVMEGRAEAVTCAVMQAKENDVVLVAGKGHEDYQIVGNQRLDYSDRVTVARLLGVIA
Chain of E. coli MurF (P11880 whole entry): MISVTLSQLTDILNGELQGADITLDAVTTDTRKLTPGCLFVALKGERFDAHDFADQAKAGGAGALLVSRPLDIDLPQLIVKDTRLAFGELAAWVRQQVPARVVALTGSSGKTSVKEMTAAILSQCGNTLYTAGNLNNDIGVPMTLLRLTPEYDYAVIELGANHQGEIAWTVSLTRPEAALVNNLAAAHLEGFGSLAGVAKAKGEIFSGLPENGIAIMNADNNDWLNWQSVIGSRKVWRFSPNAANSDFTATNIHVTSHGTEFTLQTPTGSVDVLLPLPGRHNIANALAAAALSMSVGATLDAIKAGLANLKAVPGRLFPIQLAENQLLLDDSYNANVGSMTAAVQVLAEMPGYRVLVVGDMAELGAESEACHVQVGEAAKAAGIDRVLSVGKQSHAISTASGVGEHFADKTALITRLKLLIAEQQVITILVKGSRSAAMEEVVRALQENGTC

| Structure (SMILES) | remaining activity at 100 µM [1] | IC50 [1] | LE (MurD) [1] | MurD RA [%] [1] | IC50 [2] | MurE RA [%] [2] | remaining activity at 100 µM [3] | IC50 [3] | LE (MurF) [3] | MurF RA [%] [3] | remaining activity at 100 µM [4, 8] | IC50 [4] | MurC RA [%] [4] | activity at human kinases [5] | MIC [6] | MIC [7] | remaining activity at 100 µM [4, 9] | residual activity printed in column IC50 MurD ([1]; Table S2) | residual activity printed in column IC50 MurE ([2]; Table S2) | residual activity printed in column IC50 MurF ([3]; Table S2) |
| --- | --- | --- | --- | --- | --- | --- | --- | --- | --- | --- | --- | --- | --- | --- | --- | --- | --- | --- | --- | --- |
| Nc1ccc(C#Cc2cncnc2Nc2ccc(OCc3cccc(F)c3)c(Cl)c2)cc1 [Compound 2] | 51% | 104 µM | 0.17 | 51% | 157 µM | 50% | 30% | 39 µM | 0.19 | 30% | 43% | 62 µM | 43% | no appreciable activity |  |  |  |  |  |  |
| CCCN1CCCC(c2ccc(Nc3nc(Nc4cc(F)ccc4C(N)=O)c4cc[nH]c4n3)c(OC)c2)C1 (stereo not shown) [Compound 5] | 10% | 32 µM | 0.16 | 10% | 58 µM | 26% | 16% | 66 µM | 0.15 | 16% | 29% | 62 µM | 29% | appreciable activity |  |  |  |  |  |  |
| CN(C)[C@@H]1C(O)=C(C(N)=O)C(=O)[C@@]2(O)C(O)=C3C(=O)c4c(O)cccc4[C@@](C)(O)[C@H]3C[C@@H]12 [Tetracycline] |  |  |  |  |  |  |  |  |  |  |  |  |  |  | 1 µg/mL (≈ 2.25 µM) | 0.5 µg/mL (≈ 1.13 µM) |  |  |  |  |
| N#Cc1ccc(Oc2nccc(-c3c(-c4ccc(F)cc4)ncn3C3CCNCC3)n2)cc1 [Compound 4] | 27% | 63 µM | 0.17 | 27% | 139 µM | 56% | 19% | 95 µM | 0.17 | 51% |  | 90 µM | 48% | no appreciable activity |  |  | 48% |  |  |  |
| COc1ccc(-c2nn3ncccc3c2-c2ccnc(Nc3cccc(C(F)(F)F)c3)n2)cc1 [Compound 3] | 80% |  |  | 83% |  | 84% | 35% |  |  | 100% |  | 74 µM | 10% |  |  |  | 10% | 83% | 84% | 100% |
